Experimental data as given in US10081602B2, “Opioid agonists and uses thereof” (Nektar Therapeutics, priority 2013, dated 2018).
Several values for one entry are separate records, joined by “and”; a condition that tells them apart may be missing. Equal values may be shown once.

What was measured:
[1] = biological target: human mu (MOR) opioid receptor (Homo sapiens (Human), UniProt P35372); assay: Radioligand competition binding assay, mu opioid receptor; conditions: 10 uM, [3H]Naloxone; read-out: Mu receptor % inhibition at single concentration
Method: The binding affinities of certain compounds of the present invention were evaluated using radioligand binding assays in membranes prepared from CHO-K1 cells expressing recombinant human kappa (KOR) or mu (MOR) opioid receptors.
Competition binding experiments were conducted by incubating membrane protein to equilibrium in triplicate in the presence of a fixed concentration of radioligand and increasing concentrations of test compound for evaluation of binding to KOR or single concentration (10 μM) of test compound for evaluation of binding to MOR in 101 μL final volume. The radioligands used were specific for each receptor type, and the assay conditions are described in Table 1. Following incubations, the membranes were rapidly filtered through GF/B filter plate (presoaked with 0.5% polyethyleneimine), washed five times with cold 50 mM Tris-HCl, pH 7.5, and the bound radioactivity was then measured by liquid scintillation counting. Non-specific binding was measured in the presence of excess ligand; this value was subtracted from the total binding to yield the specific binding at each test concentration.
Ki (affinity of test compound) was obtained using the Cheng Prusoff correction using experimental Kd (affinity of radioligand) values that were previously determined under these assay conditions. For MOR binding, compounds were tested at one concentration, 10 μM, to evaluate its ability to inhibit specific radioligand binding. The values are expressed as percent inhibition of specific binding and greater than 50% inhibition of binding was considered to be significant.
With respect to determining MOR binding, an approach similar to one used for KOR binding was used.

[2] = system: acetic acid-induced writhing (visceral pain) in mice; assay: Acetic acid writhing (AAW) analgesic assay; assay type: in vivo
Method: An analgesic assay was used to determine whether a given compound can reduce and/or prevent visceral pain in mice. The assay utilizes Swiss Albino or CD-1 male mice (5-10 mice per group), each mouse being approximately 0.015-0.030 kg on the study day. Mice were treated according to standard protocols.
The animal was given an intraperitoneal (IP) injection of an irritant (acetic acid) that induces “writhing” which may include: contractions of the abdomen, twisting and turning of the trunk, arching of the back and the extension of the hindlimbs. Mice are given a single IP injection (0.1 mL/10 g bodyweight) of a 0.5% acetic acid solution. After the injection the animals were returned to their observation enclosure and their behavior was observed. Contractions were counted between 0 and 20 minutes after the injection. The animals were used once. In certain instances, the test articles were administered at multiple doses to determine a dose response curve.
Table 4 provides the results for certain compounds of the present invention that were administered subcutaneously. Table 5 provides the results for certain compounds of the present invention that were administered orally.

[3] = system: locomotor activity of mice; assay: Locomotor activity; assay type: in vivo; conditions: oral, 30 min predose, 20 min observation
Method: Male Swiss Albino mice were treated orally with vehicle (0.5% HPMC+0.1% Tween80), ketazocine, Compound 12 (0.3, 3 and 30 mg/kg) or Compound 20 (0.3, 3 and 30 mg/kg) thirty minutes prior to placement in the locomotor activity chamber. Total distance travelled was measured over the twenty minute observation time following placement in the locomotor activity chamber. Data are normalized relative to percent distance travelled in the vehicle group. The efficacy of Compound 12 (reported as percent distance travelled in comparison to vehicle) was 88.85%, 83.74% and 0.08% at 0.3, 3 and 30 mg/kg dosages, respectively, while the locomotor activity of Compound 20 (reported as percent distance travelled in comparison to vehicle) was 100%, 88% and 0.03% at 0.3, 3 and 30 mg/kg dosages, respectively.

| SMILES | AAW % Efficacy ([2]; subcutaneous, 3 mg/kg) | AAW % Efficacy ([2]; subcutaneous, 30 mg/kg) [%] | AAW % Efficacy ([2]; subcutaneous, 10 mg/kg) [%] | other results |
| --- | --- | --- | --- | --- |
| COCCOCCOCCOCCOCCNc1ccc2c(c1)[C@]1(C)CCN(CC3CC3)[C@H](C2=O)[C@@H]1C [Example 2, (2S,6R,11R)-3-(Cyclopropylmethyl)-6,11-dimethyl-8-(2,5,8,11,14-pentaoxahexadecan-16-ylamino)-3,4,5,6-tetrahydro-2,6-methano-3-benzazocin-1(2H)-One] |  |  |  | inhibition at 10 µM [1]: 85.5% |
| COCCOCCOCCOCCOCCOc1ccccc1Nc1ccc2c(c1)[C@]1(C)CCN(CC3CC3)[C@H](C2=O)[C@@H]1C [Example 7, (2S,6R,11R)-8-((2-(2,5,8,11,14-pentaoxahexadecan-16-yloxy)phenyl)amino)-3-(cyclopropylmethyl)-6,11-dimethyl-3,4,5,6-tetrahydro-2,6-methanobenzo[d]azocin-1(2H)-one] | 38.8% | 84.8 |  |  |
| COCCOCCOCCOCCOCCOc1cccc(Nc2ccc3c(c2)[C@]2(C)CCN(CC4CC4)[C@H](C3=O)[C@@H]2C)c1 [Example 8, (2S,6R,11R)-8-((3-(2,5,8,11,14-pentaoxahexadecan-16-yloxy)phenyl)amino)-3-(cyclopropylmethyl)-6,11-dimethyl-3,4,5,6-tetrahydro-2,6-methanobenzo[d]azocin-1(2H)-one] | 38.0% |  |  | inhibition in vivo at 30 mg/kg ([2]; Mus musculus, sc, subcutaneous, 30 mg/kg, read-out: AAW % Efficacy): 100% |
| COCCOCCOCCOCCOCCOc1ccc(Nc2ccc3c(c2)[C@]2(C)CCN(CC4CC4)[C@H](C3=O)[C@@H]2C)cc1 [Example 9, (2S,6R,11R)-8-((4-(2,5,8,11,14-pentaoxahexadecan-16-yloxy)phenyl)amino)-3-(cyclopropylmethyl)-6,11-dimethyl-3,4,5,6-tetrahydro-2,6-methanobenzo[d]azocin-1(2H)-one] | 67.8% and 61.4% | 99.2 | 95.4 | AAW % Efficacy ([2]; oral, 10 mg/kg): 38.5%; AAW % Efficacy ([2]; subcutaneous, 0.3 mg/kg): 13.3% |
| COCCOCCOCCOCCOCCNc1ccc(Nc2ccc3c(c2)[C@]2(C)CCN(CC4CC4)[C@H](C3=O)[C@@H]2C)cc1 [Example 10, (2S,6R,11R)-8-((4-(2,5,8,11,14-pentaoxahexadecan-16-ylamino)phenyl)amino)-3 (cyclopropylmethyl)-6,11-dimethyl-3,4,5,6-tetrahydro-2,6-methanobenzo[d]azocin-1(2H)-one] | 34.0% | 100.0 |  |  |
| COCCOCCOCCOCCOCCNc1cccc(Nc2ccc3c(c2)[C@]2(C)CCN(CC4CC4)[C@H](C3=O)[C@@H]2C)c1 [Example 11, (2S,6R,11R)-8-((3-(2,5,8,11,14-pentaoxahexadecan-16-ylamino)phenyl)amino)-3-(cyclopropylmethyl)-6,11-dimethyl-3,4,5,6-tetrahydro-2,6-methanobenzo[d]azocin-1(2H)-One] | 62.2% and 64.3% | 100.0 | 99.1 | AAW % Efficacy ([2]; oral, 10 mg/kg): 31.2%; AAW % Efficacy ([2]; subcutaneous, 0.3 mg/kg): 21.1% |
| COCCOCCOCCOCCOCCNc1ccc(Nc2ccc3c(c2)[C@]2(C)CCN(CC4CC4)[C@H](C3=O)[C@@H]2C)cc1 [Example 12, (2S,6R,11R)-8-((4-(2,5,8,11,14-pentaoxahexadecan-16-ylamino)phenyl)amino)-3-(cyclopropylmethyl)-6,11-dimethyl-3,4,5,6-tetrahydro-2,6-methanobenzo[d]azocin-1(2H)-one] |  | 100.0 |  | AAW % Efficacy ([2]; oral, 0.1 mg/kg): 22.5%; AAW % Efficacy ([2]; oral, 1 mg/kg): 56.9%; AAW % Efficacy ([2]; oral, 10 mg/kg): 97.2% and 90.2%; percent distance travelled in comparison to vehicle ([3]; 0.3 mg/kg): 88.85%; percent distance travelled in comparison to vehicle ([3]; 3 mg/kg): 83.74%; percent distance travelled in comparison to vehicle ([3]; 30 mg/kg): 0.08% |
| COCCOCCOCCOCCOCCNc1nc2cc3c(cc2s1)C(=O)[C@@H]1[C@H](C)[C@@]3(C)CCN1CC1CC1 [Example 13, (6S,10R,12R)-2-(2,5,8,11,14-pentaoxahexadecan-16-ylamino)-7-(cyclopropylmethyl)-10,12-dimethyl-7,8,9,10-tetrahydro-6,10-methanothiazolo[4′,5′:4,5]benzo[1,2-d]azocin-5(6H)-one] |  |  | 40.2 |  |
| COCCOCCN1CC[C@@]2(C)c3cc(O)ccc3C(=O)[C@@H]1[C@@H]2C [Example 14, (2S,6R,11R)-8-hydroxy-3-(2-(2-methoxyethoxy)ethyl)-6,11-dimethyl-3,4,5,6-tetrahydro-2,6-methanobenzo[d]azocin-1(2H)-One] |  |  | 13.2 |  |
| COCCOCC(=O)Nc1ccc2c(c1)[C@]1(C)CCN(CC3CC3)[C@H](C2=O)[C@@H]1C [Example 15, N-((2S,6R,11R)-3-(cyclopropylmethyl)-6,11-dimethyl-1-oxo-1,2,3,4,5,6-hexahydro-2,6-methanobenzo[d]azocin-8-yl)-2-(2-methoxyethoxy)acetamide] |  |  | 100.0 |  |
| COCCNC(=O)c1ccc2c(c1)[C@]1(C)CCN(CC3CC3)[C@H](C2=O)[C@@H]1C [Example 16, (2S,6R,11R)-3-(cyclopropylmethyl)-N-(2-methoxyethyl)-6,11-dimethyl-1-oxo-1,2,3,4,5,6-hexahydro-2,6-methanobenzo[d]azocine-8-carboxamide] |  |  | 26.4 |  |
| COCCOCC(=O)NCc1ccc2c(c1)[C@]1(C)CCN(CC3CC3)C(C2=O)[C@@H]1C [Example 17, N,N-(((2S,6R,11R)-3-(cyclopropylmethyl)-6,11-dimethyl-1-oxo-1,2,3,4,5,6-hexahydro-2,6-methanobenzo[d]azocin-8-yl)methyl)-2-(2-methoxyethoxy)acetamide] |  |  | 23.3 |  |
| COCCOCCNCc1ccc2c(c1)[C@]1(C)CCN(CC3CC3)[C@H](C2=O)[C@@H]1C [Example 18, (2S,6R,11R)-3-(cyclopropylmethyl)-8-(((2-(2-methoxyethoxy)ethyl)amino)methyl)-6,11-dimethyl-3,4,5,6-tetrahydro-2,6-methanobenzo[d]azocin-1(2H)-one] |  |  | 31.9 |  |
| COCCOCCOCCOCCOCCOc1c(O)ccc2c1[C@]1(C)CCN(CC3CC3)[C@H](C2=O)[C@@H]1C [Example 19, (2S,6R,11R)-7-(2,5,8,11,14-pentaoxahexadecan-16-yloxy)-3-(cyclopropylmethyl)-8-hydroxy-6,11-dimethyl-3,4,5,6-tetrahydro-2,6-methanobenzo[d]azocin-1(2H)-one] |  |  | 31.6 |  |
| C[C@H]1[C@H]2C(=O)c3ccc(Nc4ccc(NCCOCCOCCOCCOCCOC(F)(F)F)cc4)cc3[C@]1(C)CCN2CC1CC1 [Example 20, (2S,6R,11R)-3-(cyclopropylmethyl)-6,11-dimethyl-8-((4-((1,1,1-trifluoro-2,5,8,11,14-pentaoxahexadecan-16-yl)amino)phenyl)amino)-3,4,5,6-tetrahydro-2,6-methanobenzo[d]azocin-1(2H)-One] |  |  | 88.1 | AAW % Efficacy ([2]; oral, 0.3 mg/kg): 39.1%; AAW % Efficacy ([2]; oral, 3 mg/kg): 79.5%; AAW % Efficacy ([2]; oral, 30 mg/kg): 100.0%; percent distance travelled in comparison to vehicle ([3]; 0.3 mg/kg): 100%; percent distance travelled in comparison to vehicle ([3]; 3 mg/kg): 88%; percent distance travelled in comparison to vehicle ([3]; 30 mg/kg): 0.03% |
| C[C@H]1[C@H]2C(=O)c3cc4sc(N)nc4cc3[C@]1(C)CCN2CC1CC1 [Step 1 of 13, (6S,10R,12R)-2-amino-7-(cyclopropylmethyl)-10,12-dimethyl-7,8,9,10-tetrahydro-6,10-methanothiazolo[4′,5′:4,5]benzo[1,2-d]azocin-5(6H)-One] |  |  | 100 |  |
